# Measurements: patent publication US20120264902A1 (The Regents of the University of Colorado, a body corporate, priority 2011, published 2012)
# Like-named read-outs stand apart in the source and are kept apart here.
# Key:
# [1] = system: E. Coli Mach1-T1®; experiment: MIC of 3-HP, microaerobic, 96-well, MOPS minimal media (Examples 2 and 4); type: cell-based, Escherichia coli; settings: supplement added to MOPS minimal media, 24 hours
# [2] = system: E. Coli K12; type: cell-based, Escherichia coli; settings: E. Coli K12, M9 minimal media, control or supplemented, aerobic, 24 hours
# Protocol: Overnight cultures of strains were grown in 5 ml LB (with antibiotic where appropriate) at 37° C. in a shaking incubator. A 1 v/v % was used to inoculate 10 mL of M9 minimal media. After the cells reached mid-exponential phase, the culture was diluted to an OD600 of 0.200. The cells were further diluted 1:20 and a 10 ul aliquot was used to inoculate each well (˜10^4 cells per well). […] The MIC endpoint is the lowest concentration of compound at which there was no visible growth.
# [3] = system: Yeast strains, S288 C background; experiment: Yeast aerobic MIC evaluation (Tables 13 and 15); type: cell-based; settings: Saccharomyces cerevisiae, read-out: Average MIC Assay Result (g/L 3-HP), S288C, SD media, aerobic, MIC of 3-HP with the named supplement (label 3-HP = no supplement)
# Protocol: The minimum inhibitory concentration (MIC) was determined aerobically in a 96 well-plate format. […] A 1% (v/v) inoculum was introduced into a 5 ml culture of SD minimal media without vitamins. After the cells reached mid-exponential phase, the culture was diluted to an OD600 of 0.200. The cells were further diluted 1:5 and a 10 μL aliquot was used to inoculate each well of a 96 well plate (˜10^4 cells per well) to total volume of 100 uL. […] Plates were incubated for 72 hours at 30 C.
# [4] = system: Yeast strains, S288 C background; experiment: Yeast anaerobic MIC evaluation (Tables 14 and 16); type: cell-based, Saccharomyces cerevisiae; settings: for MIC: Saccharomyces cerevisiae, read-out: Average MIC Assay Result (g/L 3-HP)
# Protocol: The minimum inhibitory concentration (MIC) was determined anaerobically in a 96 well-plate format. […] A 1% (v/v) inoculum was introduced into a 5 ml culture of SD minimal media without vitamins. After the cells reached mid-exponential phase, the culture was diluted to an OD600 of 0.200. The cells were further diluted 1:5 and a 10 μL aliquot was used to inoculate each well of a 96 well plate (˜10^4 cells per well) to total volume of 100 uL. […] Plates were incubated for 72 hours at 30 C. […] Plates were sealed in biobag anaerobic chambers that contained gas generators for anaerobic conditions and incubated for 72 hours at 30 C.
# [5] = system: E. Coli BW25113; experiment: MIC evaluation general protocol, E. Coli anaerobic (Tables 7 and 9); type: cell-based; settings: for MIC: Escherichia coli, read-out: MIC Assay Result (g/L 3-HP); for % Increase Over Control: MIC vs BW25113 in M9 without supplement
# Protocol: The minimum inhibitory concentration (MIC) was determined anerobically in a 96 well-plate format. […] Overnight cultures of strains were grown in triplicate in 5 mL LB (with antibiotic where appropriate). A 1% (v/v) inoculum was introduced into a 5 ml culture of M9 minimal media.
# (§1) For the above MIC evaluations, the final results are expressed in chemical agent concentrations determined by analysis of the stock solution by HPLC (i.e., see Subsection Mb).
# [6] = system: E. Coli BW25113; experiment: MIC evaluation general protocol, E. Coli aerobic (Tables 6 and 8); type: cell-based; settings: for average MIC Assay Result (g/L 3-HP): MIC of 3-HP for strain BW25113 in M9 media with the named supplement(s); for % Increase Over Control: increase of 3-HP MIC vs BW25113 in M9 without supplement
# Protocol: The minimum inhibitory concentration (MIC) was determined aerobically in a 96 well-plate format. […] Overnight cultures of strains were grown in triplicate in 5 mL LB (with antibiotic where appropriate). A 1% (v/v) inoculum was introduced into a 5 ml culture of M9 minimal media.
# as §1
# [7] = system: B. subtilis; experiment: MIC evaluation general protocol, B. subtilis aerobic (Table 11); type: cell-based, Bacillus subtilis; settings: B. subtilis 168, M9 + glu + trp, growth with 3-HP and the named supplement (label 3-HP = no supplement)
# Protocol: The minimum inhibitory concentration (MIC) was determined aerobically in a 96 well-plate format. […] Overnight cultures of strains were grown in triplicate in 5 mL LB (with antibiotic where appropriate). A 1% (v/v) inoculum was introduced into a 5 ml culture of M9 minimal media+glutamate.
# [8] = Preparation of neutralized 3-HP stock solution (observation at neutral pH); type: physicochemical; settings: pH 7, aqueous buffer
# Description: (§2) 3-HP was obtained from TCI America (Portland, Oreg.). Significant acrylic acid and 2-oxydipropionic contamination was observed via HPLC analysis. Samples were subsequently treated by diethyl ether extraction to remove acrylic acid and a portion of the 2-oxydipropionic contaminants. Samples were then neutralized with 10 M NaOH to a final pH of 7.0. […] The working stock solution was used for the selection and MIC evaluations in this example.
# as §2, with “selection, growth rates” for “selection”
# [9] = system: MACH1™-T1® E. Coli; experiment: IroK expression study, microaerobic MIC, MOPS minimal media, 1 mM IPTG; type: cell-based; settings: IroK expressed from pKK223-3; data not shown
# Protocol: The two oligonucleotides were added in a 1:1 ratio and annealed according to standard methodology in a thermal cycler. Ligation of the annealed primer product with the pKK223-3 expression vector (SEQ ID NO:008, Pharmacia, Piscataway, N.J.) was performed with T4 Ligase (Invitrogen, Carlsbad, Calif.) and incubated at 25° C. overnight. The ligation product was then electroporated into competent MACH1™-T1®, plated on LB+ampicillan, and incubated at 37° C. for 24 hours. Plasmids were isolated and confirmed by purification and subsequent restriction digest and sequencing (Macrogen, Rockville, Md.). MICs were then determined corresponding to 1 mM IPTG induction.
# The minimum inhibitory concentration (MIC) was determined microaerobically in a 96 well-plate format. Overnight cultures of strains were grown in 5 mL LB (with antibiotic where appropriate). A 1% (v/v) inoculum was introduced into a 15 ml culture of MOPS minimal media. After the cells reached mid-exponential phase, the culture was diluted to an OD600 of 0.200. The cells were further diluted 1:20 and a 10 μL aliquot was used to inoculate each well of a 96 well plate (˜10^4 cells per well).
# [10] = BW25113, M9 with supplements at Table 3 levels (or EZ Rich), anaerobic, 24 hours
compound,measurement,setting,value
CCC(=O)C(=O)O [2-oxobutyrate],MIC increases (3-HP) with supplementation,[1],7%
"O=C([O-])O.[Na+] [Bicarbonate, sodium bicarbonate]",Minimum inhibitory concentration (MIC) of 3-HP,[2],30 mg/mL
NC(=O)NCCC[C@H](N)C(=O)O [Citrulline (C)],MIC,[3],58 g/L
same,MIC,[4],97 g/L
"O=C(O)c1cccc(O)c1O [Dihydroxybenzoate, 2,3-dihydroxybenzoic acid]",MIC increases (3-HP) with supplementation,[1],33%
same,MIC,[5]; [10],40 g/L
same,% Increase Over Control,[5]; anaerobic,33%
same,average MIC Assay Result (g/L 3-HP),[6],35 g/L 3-HP
same,% Increase Over Control,[6],27%
N[C@@H](CCS)C(=O)O [Homocysteine],% Increase Over Control,"[4]; S288C, SD media, anaerobic, MIC with supplement vs no supplement",7%
same,MIC,[4],40 g/L
same,average MIC Assay Result (g/L 3-HP),[6],30 g/L 3-HP
same,% Increase Over Control,[6],9%
N[C@@H](CCO)C(=O)O [Homoserine],MIC increases (3-HP) with supplementation,[1],33%
same,MIC,[5]; [10],30 g/L
same,% Increase Over Control,[5]; anaerobic,0%
CC[C@H](C)[C@H](N)C(=O)O [Isoleucine (B)],MIC,[4],38 g/L
NCCCC[C@H](N)C(=O)O [Lysine],MIC,"[5]; BW25113, 24 h",41.7 g/L
same,MIC,[4],45 g/L
CSCC[C@H](N)C(=O)O [Methionine],MIC,[5]; [10],42.8 g/L
same,% Increase Over Control,[5]; anaerobic,43%
N[C@@H](Cc1ccccc1)C(=O)O [Phenylalanine],MIC increases (3-HP) with supplementation,[1],33%
same,MIC,[5]; [10],32.1 g/L
same,% Increase Over Control,[5]; anaerobic,7%
NCCCCN [Putrescine],MIC,[5]; [10],35 g/L
same,% Increase Over Control,[5]; anaerobic,17%
N[C@@H](CO)C(=O)O [Serine],MIC,[5]; [10],32.1 g/L
same,MIC,[4],45 g/L
O=C(O)C1=C[C@@H](O)[C@@H](O)[C@H](O)C1 [Shikimate (A)],MIC,[3],80 g/L
same,MIC,[4],60 g/L
NCCCCNCCCN [Spermidine],MIC,[5]; [10],35 g/L
same,% Increase Over Control,[5]; anaerobic,17%
"O=C(O)CCO [Strain 3-HP, 3-hydroxypropionic acid]",Avg 24 hr ΔOD600,[7],0.04
same,solubility,[8],> 35 mg/mL
C[C@@H](O)[C@H](N)C(=O)O [Threonine],MIC increases (3-HP) with supplementation,[1],3%
N[C@@H](Cc1c[nH]c2ccccc12)C(=O)O [Tryptophan],MIC increases (3-HP) with supplementation,[1],33%
N[C@@H](Cc1ccc(O)cc1)C(=O)O [Tyrosine],MIC increases (3-HP) with supplementation,[1],40%
CC(=O)O [acetic],MICs of other organic acids with IroK expression,[9],unchanged
"C=CC(=O)O [acrylic, acrylic acid]",MICs of other organic acids with IroK expression,[9],unchanged
Cl.NC1CCSC1=O (stereo not drawn) [homocysteine thiolactone hydrochloride],MIC increases (3-HP) with supplementation,[1],60%
CC(O)C(=O)O (stereo not drawn) [lactic],MICs of other organic acids with IroK expression,[9],unchanged
Nc1ccc(C(=O)O)cc1 [p-aminobenzoate],MIC increases (3-HP) with supplementation,[1],7%
NNC(=O)c1ccc(O)cc1 [p-hydroxybenzoic acid hydrazide],MIC increases (3-HP) with supplementation,[1],33%
Cc1ncc(CO)c(CO)c1O.Cl [pyridoxine hydrochloride],MIC increases (3-HP) with supplementation,[1],0%
Tetrahydrofolate,MIC Assay Result (g/L 3-HP),[5]; [10],40.0 g/L
same,% Increase Over Control,[5]; anaerobic,33%
same,average MIC Assay Result (g/L 3-HP),[6],30 g/L 3-HP
same,% Increase Over Control,[6],9%
